Consider 15 compounds from patent US20250230147A1, “LACTAMS AS CBL-B INHIBITORS” (Genentech, Inc., priority 2021, published 2025).

The target in one experiment is Cbl-b (Homo sapiens (Human), UniProt Q13191). Briefly: Cbl-b LCK Ub TR-FRET assay (Cbl-b Lck HTRF). Format: biochemical. The procedure, abridged:
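Biotin-Cbl-b preincubated with compound (10-point 3-fold series) 60 min, then His-LCK with 1 mM ATP (2× mixture) added for 90 min at room temperature. Ubiquitination detected by TR-FRET using HA-ubiquitin/UBE2D2 adduct, anti-HA-D2 and streptavidin-Eu; IC50 normalised to no-LCK and DMSO controls.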

In the next experiment the target is c-Cbl (Homo sapiens (Human), UniProt P22681). Briefly: C-Cbl LCK Ub TR-FRET assay (c-cbl Lck HTRF). Format: biochemical. As to conditions: for (fold-selectivity): C-cbl Lck HTRF IC50 relative to Cbl-b Lck HTRF IC50. The procedure, abridged:
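Detection reagents added, brief spin, 20 min RT. IC50 fit normalized to no-LCK (low) and DMSO (high) controls.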
For orientation: Time-resolved FRET reads energy transfer from a long-lived donor to a nearby acceptor.

c-Cbl, sequence (P22681 47-435): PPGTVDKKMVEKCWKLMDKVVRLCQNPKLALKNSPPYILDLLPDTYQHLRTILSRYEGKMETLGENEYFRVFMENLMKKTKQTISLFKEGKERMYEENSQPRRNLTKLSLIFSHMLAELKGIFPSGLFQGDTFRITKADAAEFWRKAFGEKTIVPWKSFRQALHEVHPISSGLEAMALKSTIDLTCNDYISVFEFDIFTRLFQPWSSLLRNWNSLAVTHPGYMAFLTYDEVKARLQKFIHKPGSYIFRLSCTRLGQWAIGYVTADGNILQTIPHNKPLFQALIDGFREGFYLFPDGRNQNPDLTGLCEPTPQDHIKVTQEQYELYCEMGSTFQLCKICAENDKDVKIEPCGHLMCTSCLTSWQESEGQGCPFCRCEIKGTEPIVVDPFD
Cbl-b, sequence (Q13191 40-426): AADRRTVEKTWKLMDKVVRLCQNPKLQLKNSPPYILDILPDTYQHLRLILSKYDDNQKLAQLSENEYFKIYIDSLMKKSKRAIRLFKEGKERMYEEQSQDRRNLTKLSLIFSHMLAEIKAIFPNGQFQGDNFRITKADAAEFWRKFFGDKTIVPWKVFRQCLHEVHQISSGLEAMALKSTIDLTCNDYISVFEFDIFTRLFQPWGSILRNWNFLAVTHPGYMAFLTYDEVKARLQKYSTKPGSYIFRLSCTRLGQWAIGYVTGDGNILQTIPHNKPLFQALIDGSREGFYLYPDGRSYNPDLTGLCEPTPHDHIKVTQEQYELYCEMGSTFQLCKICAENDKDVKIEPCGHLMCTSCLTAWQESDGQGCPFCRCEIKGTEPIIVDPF

Regarding `Cn1cnnc1[C@@H](F)C1(c2cccc(N3Cc4c(cc(CC5CNC5)cc4C(F)(F)F)C3=O)c2)COC1` [Compound 58, (S)-6-(azetidin-3-ylmethyl)-2-(3-(3-(fluoro(4-methyl-4H-1,2,4-triazol-3-yl)methyl)oxetan-3-yl)phenyl)-4-(trifluoromethyl)isoindolin-1-one], the figures for the IC50 against Cbl-b and at c-Cbl were 200 nM and 360 nM, respectively. Moreover, the “(fold-selectivity)” value on c-Cbl came out at 1.8x.

Consider `Cn1cnnc1[C@H](F)C1(c2cccc(N3Cc4c(cc(CC5CNC5)cc4C(F)(F)F)C3=O)c2)COC1` [Compound 57, (R)-6-(azetidin-3-ylmethyl)-2-(3-(3-(fluoro(4-methyl-4H-1,2,4-triazol-3-yl)methyl)oxetan-3-yl)phenyl)-4-(trifluoromethyl)isoindolin-1-one], for which the IC50 (as a rule, the midpoint of a concentration-inhibition curve) at Cbl-b was 49 nM. Besides, at c-Cbl, the IC50 worked out at 67 nM and the “(fold-selectivity)” value came out at 1.4x.

In turn, `Cn1cnnc1CC1(c2cc(C3CC3)nc(N3Cc4c(cc(CNC5(C)CCC5)cc4C(F)(F)F)C3=O)c2)COC1` [Compound 300, 2-(6-cyclopropyl-4-(3-((4-methyl-4H-1,2,4-triazol-3-yl)methyl)oxetan-3-yl)pyridin-2-yl)-6-(((1-methylcyclobutyl)amino)methyl)-4-(trifluoromethyl)isoindolin-1-one] displayed an IC50 against Cbl-b of 5.6 nM. On c-Cbl, the IC50 was 4.7 nM and the “(fold-selectivity)” value is reported as “(0.83x)”.

`CC(C)[C@H]1CN(C)CCN1Cc1cc2c(c(C(F)(F)F)c1)CN(c1cccc(C3([C@@H](F)c4n[nH]cc4C(F)(F)F)COC3)c1)C2=O` [Compound 377, 2-(3-(3-((R)-fluoro(4-(trifluoromethyl)-1H-pyrazol-3-yl)methyl)oxetan-3-yl)phenyl)-6-(((S)-2-isopropyl-4-methylpiperazin-1-yl)methyl)-4-(trifluoromethyl)isoindolin-1-one]: on Cbl-b, the half-inhibitory concentration (IC50) came to 10000 nM. For the same compound, at c-Cbl, 20000 nM corresponded to half-maximal inhibition (IC50) and the “(fold-selectivity)” value was “(2.0x)”.

On Cbl-b, `Cn1cnnc1CC1(c2cccc(N3Cc4c(cc(CN)cc4C(F)(F)F)C3=O)c2)CC(F)(F)C1` [Compound 400, 6-(aminomethyl)-2-(3-(3,3-difluoro-1-((4-methyl-4H-1,2,4-triazol-3-yl)methyl)cyclobutyl)phenyl)-4-(trifluoromethyl)isoindolin-1-one] returned an IC50 of 39 nM. Also, on c-Cbl, half-maximal inhibition (IC50) was put at 51 nM and the “(fold-selectivity)” value was “(1.3x)”.

Consider `Cn1cnnc1CC1(c2cccc(N3Cc4c(cc(CN5CC(C)(O)C5)cc4C(F)(F)F)C3=O)c2)CC(F)(F)C1` [Compound 17, 2-(3-(3,3-difluoro-1-((4-methyl-4H-1,2,4-triazol-3-yl)methyl)cyclo-butyl)phenyl)-6-((3-hydroxy-3-methylazetidin-1-yl)methyl)-4-(trifluoromethyl)isoindolin-1-one], for which the IC50 at Cbl-b is 17 nM. Further, at c-Cbl, the IC50 was 14 nM and the “(fold-selectivity)” value was 0.85x.

The compound `CCNc1cc(N2Cc3c(cc(CNC4(C)CCC4)cc3C(F)(F)F)C2=O)cc(C2(Cc3nncn3C)CC(F)(F)C2)c1` [Compound 466, 2-(3-(3,3-difluoro-1-((4-methyl-4H-1,2,4-triazol-3-yl)methyl)cyclobutyl)-5-(ethylamino)phenyl)-6-(((1-methylcyclobutyl)amino)methyl)-4-(trifluoromethyl)isoindolin-1-one] came in with an IC50 against Cbl-b of 6.4 nM. On c-Cbl, 6.1 nM corresponded to half-maximal inhibition (IC50) and the “(fold-selectivity)” value was “(0.96x)”.

In the case of `CC(C)CNCc1cc2c(c(C(F)(F)F)c1)CN(c1cccc(C3([C@H](F)c4nncn4C)CC(F)(F)C3)c1)C2=O` [Compound 452, (S)-2-(3-(3,3-difluoro-1-(fluoro(4-methyl-4H-1,2,4-triazol-3-yl)methyl)cyclobutyl)phenyl)-6-((isobutylamino)methyl)-4-(trifluoromethyl)isoindolin-1-one], 12 nM corresponded to half-maximal inhibition at Cbl-b (IC50). In addition, on c-Cbl, it took 9.1 nM to reach half-maximal inhibition (IC50) and the “(fold-selectivity)” value is listed as “(0.78x)”.

Compound `Cn1cnnc1[C@H](F)C1(c2cccc(N3Cc4c(cc(CN5CC6CC6C5)cc4C(F)(F)F)C3=O)c2)COC1` (stereo partly drawn) [Compound 84, 6-((3-azabicyclo[3.1.0]hexan-3-yl)methyl)-2-(3-(3-((R)-fluoro(4-methyl-4H-1,2,4-triazol-3-yl)methyl)oxetan-3-yl)phenyl)-4-(trifluoromethyl)isoindolin-1-one] had a 50% inhibitory concentration (IC50) on Cbl-b of 62 nM. At c-Cbl, inhibition was half-maximal at 120 nM (IC50) and the “(fold-selectivity)” value is listed as 1.9x.

On Cbl-b, `Cn1cnnc1CC1(c2cccc(N3Cc4c(cc(CN5CCC6(CC6)C5)cc4C(F)(F)F)C3=O)c2)CC(F)(F)C1` [Compound 106, 6((5-azaspiro[2.4]heptan-5-yl)methyl)-2-(3-(3,3-difluoro-1-((4-methyl-4H-1,2,4-triazol-3-yl)methyl)cyclobutyl)phenyl)-4-(trifluoromethyl)isoindolin-1-one] displayed an IC50 of 18 nM. On c-Cbl, the IC50 was determined as 15 nM and the “(fold-selectivity)” value turned out to be 0.81x.

Compound `CC(C)N(C)Cc1cc2c(c(C(F)(F)F)c1)CN(c1cccc(C3([C@@H](F)c4nncn4C)CC(F)(F)C3)c1)C2=O` [Compound 419, (R)-2-(3-(3,3-difluoro-1-(fluoro(4-methyl-4H-1,2,4-triazol-3-yl)methyl)cyclobutyl)phenyl)-6-((isopropyl(methyl)amino)methyl)-4-(trifluoromethyl)isoindolin-1-one] gave a concentration for half-maximal inhibition (IC50) against Cbl-b of 360 nM. Besides, at c-Cbl, it took 420 nM to reach half-maximal inhibition (IC50) and the “(fold-selectivity)” value is reported as “(1.2x)”.

Consider `Cn1cnnc1CC1(c2cc(CCc3ccccc3)nc(N3Cc4c(cc(CNC5(C)CCC5)cc4C(F)(F)F)C3=O)c2)CCC1` [Compound 325, 2-(4-(1-((4-methyl-4H-1,2,4-triazol-3-yl)methyl)cyclobutyl)-6-phenethylpyridin-2-yl)-6-(((1-methylcyclobutyl)amino)methyl)-4-(trifluoromethyl)isoindolin-1-one], for which the half-maximal inhibitory concentration (IC50) worked out at 47 nM at Cbl-b and 41 nM on c-Cbl. Besides, the “(fold-selectivity)” value on c-Cbl was “(0.87x)”.

`Cn1cnnc1[C@@H](F)C1(c2cccc(N3Cc4c(cc(CN)cc4C(F)(F)F)C3=O)c2)CCC1` [Compound 387, (S)-6-(aminomethyl)-2-(3-(1-(fluoro(4-methyl-4H-1,2,4-triazol-3-yl)methyl)cyclobutyl)phenyl)-4-(trifluoromethyl)isoindolin-1-one]: the IC50 at Cbl-b amounted to 58 nM; on c-Cbl, 53 nM. Also, at c-Cbl, the “(fold-selectivity)” value was “(0.91x)”.

`CC(C)[C@@H]1CN(Cc2cc3c(c(C(F)(F)F)c2)CN(c2cccc(C4([C@@H](F)c5nncn5C)COC4)c2)C3=O)CCN1C` [Compound 218, 2-(3-(3-((R)-fluoro(4-methyl-4H-1,2,4-triazol-3-yl)methyl)oxetan-3-yl)phenyl)-6-(((R)-3-isopropyl-4-methylpiperazin-1-yl)methyl)-4-(trifluoromethyl)isoindolin-1-one] yielded an IC50 at Cbl-b of 22 nM. On c-Cbl, the concentration for half-maximal inhibition (IC50) was 29 nM and the “(fold-selectivity)” value was 1.3x.

On to `Cn1cnnc1[C@H](F)C1(c2cccc(N3Cc4c(cc(CN5CCC[C@H]5CO)cc4C(F)(F)F)C3=O)c2)COC1` [Compound 149, 2-(3-(3-((R)-fluoro(4-methyl-4H-1,2,4-triazol-3-yl)methyl)oxetan-3-yl)phenyl)-6-(((S)-2-(hydroxymethyl)pyrrolidin-1-yl)methyl)-4-(trifluoromethyl)isoindolin-1-one], for which half-maximal inhibition at Cbl-b (IC50) required 380 nM. On c-Cbl, the midpoint of inhibition, the IC50, lay at 390 nM and the “(fold-selectivity)” value amounted to 1.0x.
